Measured values: publication PMC7186572, “Functional Identification and Structural Analysis of a New Lipoate Protein Ligase in Mycoplasma hyopneumoniae” (Frontiers in Cellular and Infection Microbiology, 2020)

Assays:
[1] = molecular target: T1, large domain of Mhp-Lpl (ML) (Mesomycoplasma hyopneumoniae, UniProt Q4AA29); experiment: western blot of GcvH lipoylation with anti-lipoic acid antibody; type: biochemical; details: 1 mM lipoic acid, 5 mM ATP, 1 mM MgCl2, 5 mM DTT, 20 μM apo Mhp H as acceptor, pH 7.0, 37 °C, 4 h
T1 construct: gene lplA-1; large N-terminal domain, residues 1-254, C-terminal His tag, pET32a, expressed in E. coli BL21(DE3)
T1 sequence (Q4AA29 1-256 limits assumed): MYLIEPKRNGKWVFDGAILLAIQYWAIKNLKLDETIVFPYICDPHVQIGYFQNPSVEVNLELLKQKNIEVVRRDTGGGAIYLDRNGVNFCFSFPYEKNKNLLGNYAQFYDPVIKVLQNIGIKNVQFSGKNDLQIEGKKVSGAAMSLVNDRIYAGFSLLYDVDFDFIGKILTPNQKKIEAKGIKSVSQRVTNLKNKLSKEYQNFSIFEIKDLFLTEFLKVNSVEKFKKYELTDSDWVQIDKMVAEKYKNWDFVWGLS

[2] = molecular target: T2, Mhp-Lpl (Mesomycoplasma hyopneumoniae, UniProt Q4AA29); experiment: as above; type: biochemical; details: 1 mM lipoic acid, 5 mM ATP, 1 mM MgCl2, 5 mM DTT, 20 μM apo Mhp H as acceptor, pH 7.0, 37 °C, 4 h
T2 construct: gene lplA-1; full length, 343 residues, C-terminal His tag, pET32a NdeI/XhoI, synthetic E. coli codon-optimised gene (TGA to TGG), expressed in E. coli BL21(DE3), about 40 kDa
T2 sequence (Q4AA29 1-342 limits assumed): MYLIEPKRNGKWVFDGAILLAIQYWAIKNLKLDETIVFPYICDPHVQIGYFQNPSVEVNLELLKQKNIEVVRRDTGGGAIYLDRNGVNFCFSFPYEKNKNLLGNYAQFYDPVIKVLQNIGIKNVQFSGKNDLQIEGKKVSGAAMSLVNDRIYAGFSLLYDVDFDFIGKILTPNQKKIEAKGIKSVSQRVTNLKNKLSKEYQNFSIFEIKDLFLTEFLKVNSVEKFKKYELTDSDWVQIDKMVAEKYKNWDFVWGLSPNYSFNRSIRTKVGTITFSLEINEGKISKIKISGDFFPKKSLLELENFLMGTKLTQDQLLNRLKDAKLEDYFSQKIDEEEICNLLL

[3] = molecular target: T3, E. coli LplA (Escherichia coli, UniProt P32099); experiment: as above; type: biochemical; details: 1 mM lipoic acid, 5 mM ATP, 1 mM MgCl2, 5 mM DTT, 20 μM apo E. coli GcvH as acceptor, pH 7.0, 37 °C, 4 h
T3 construct: full length, C-terminal His tag, pET32a NdeI/XhoI, expressed in E. coli BL21(DE3)
T3 sequence (P32099 2-338): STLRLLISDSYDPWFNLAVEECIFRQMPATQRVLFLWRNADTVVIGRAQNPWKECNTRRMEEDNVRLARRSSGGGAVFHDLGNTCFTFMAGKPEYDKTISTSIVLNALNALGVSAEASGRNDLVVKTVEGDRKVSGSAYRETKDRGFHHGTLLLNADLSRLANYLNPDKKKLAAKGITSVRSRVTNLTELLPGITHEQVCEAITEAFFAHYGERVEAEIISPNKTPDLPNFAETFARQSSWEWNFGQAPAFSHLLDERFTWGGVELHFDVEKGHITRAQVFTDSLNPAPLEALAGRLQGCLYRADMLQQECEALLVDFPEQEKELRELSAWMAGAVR

[4] = molecular target: T2, Mhp-Lpl; experiment: X-ray crystallography, […] Å; type: binding; details: enzyme reacted with ATP and lipoic acid, then further purified and crystallised; partial occupancy; active site; reaction intermediate; an unidentified AMP-fatty acid co-purifies from E. coli

Structure (SMILES) | western blot of GcvH lipoylation with anti-lipoic acid antibody [1] | western blot of GcvH lipoylation with anti-lipoic acid antibody [2] | western blot of GcvH lipoylation with anti-lipoic acid antibody [3] | X-ray crystallography, 2.45 Å [4]
O=C(O)CCCC[C@@H]1CCSS1 (racemic) [lipoic acid] | the large domain is able to catalyze Mhp H lipoylation | lipoic acid was successfully transferred to the Mhp H protein by the MHP_RS01680-encoded protein | E. coli LplA could successfully transfer lipoic acid to E. coli GcvH | 
Nc1ncnc2c1ncn2[C@@H]1O[C@H](COP(=O)(O)OP(=O)(O)OP(=O)(O)O)[C@@H](O)[C@H]1O [ATP] | including activation of lipoic acid with ATP to form lipoyl-AMP | Mhp-Lpl catalyzes the ATP-dependent activation of lipoate to lipoyl-AMP |  | 
Nc1ncnc2c1ncn2[C@@H]1O[C@H](COP(=O)(O)OC(=O)CCCC[C@@H]2CCSS2)[C@@H](O)[C@H]1O [lipoyl-AMP] |  |  |  | lipoyl-AMP could be modeled into the density, despite its partial occupancy
